One may read the IC50 as the concentration needed to halve the response being measured. Read a low IC50 as inhibition by little substance.

The nature of the assay: Biochemical Assay: Test compounds were placed in a Greiner Bio-One (Monroe, N.C.) 1536-well black solid bottom assay plate. 200 millimolar (mM) Tris HCl, pH 7.4, 100 micromolar (μM) EDTA and 0.01% TWEEN-20, final concentration, was used as the assay buffer. The LDHA reagent was 2 nanomolar (nM) Human LDHA (Meridian Life Science, Inc., Memphis, Tenn.), final concentration, in assay buffer. The substrate reagent was 0.06 mM NADH and 0.2 mM sodium pyruvate, final concentration, in assay buffer. The resazurin/diaphorase coupling reagent was 0.037 mM resazurin and 0.133 milligrams per milliliter (mg/mL) diaphorase, final concentration, in assay buffer. The inhibition of LDHA activity was measured by fluorescence emission. Background: Resazurin is reduced to fluorescent resorufin, in cell work by metabolically active cells.
Consider `CC1CC=C(c2cc(-c3nn(-c4nc(C(=O)O)cs4)c(CC4CC4)c3Cc3ccc([SH+](N)[O-])c(F)c3)ccc2F)CC1` (centres undefined), for which the IC50 was less than 100 nM.

`COC1CC=C(c2cc(-c3nn(-c4nc(C(=O)O)cs4)c(CC4CC4)c3Cc3ccc([SH+](N)[O-])c(F)c3)ccc2F)CC1` (centres undefined) displayed an IC50 of less than 100 nM.

In turn, `COc1ccc(-c2cc(-c3nn(-c4nc(C(=O)O)cs4)c(CC4CC4)c3Cc3ccc([SH+](N)[O-])c(F)c3)ccc2F)cc1C` (centres undefined) returned an IC50 of less than 100 nM.

As to `N[S+](=O)([O-])c1ccc(Cc2c(-c3ccc(F)c(-c4ncc[nH]4)c3)nn(-c3nc(C(=O)O)cs3)c2CC2CC2)cc1F`, the half-inhibitory concentration (IC50) was less than 100 nM.

As to `N[SH+]([O-])c1ccc(Cc2c(-c3cccc(-c4ccc(C5CC5)c(F)c4)c3)nn(-c3nc(C(=O)O)cs3)c2CC2CC2)cc1F` (centres undefined), the IC50 entry was “in the range around 29000 nM”.

As for `Cc1ccc(C#Cc2cccc(-c3nn(-c4nc(C(=O)O)cs4)c(CCC4CC4)c3Cc3ccc([SH+](N)[O-])c(F)c3)c2)s1` (centres undefined), the IC50 is less than 100 nM.

Consider `CC(C)(C)c1ccc(C#Cc2cc(-c3nn(-c4nc(C(=O)O)cs4)c(CC4CC4)c3Cc3ccc([SH+](N)[O-])c(F)c3)ccc2F)s1` (centres undefined), for which the IC50 result was “in the range around 550 nM”.

On to `N[SH+]([O-])c1ccc(Cc2c(-c3cccc(-c4ccc(Cl)c(F)c4)c3)nn(-c3nc(C(=O)O)cs3)c2CC2CC2)cc1F` (centres undefined), for which the IC50 was less than 100 nM.

`Cc1ccc(C2CC2c2cccc(-c3nn(-c4nc(C(=O)O)cs4)c(CC4CC4)c3Cc3ccc([SH+](N)[O-])c(F)c3)c2)s1` (centres undefined) came in with an IC50 of less than 100 nM.

For `CC1CCCC=C1c1cc(-c2nn(-c3nc(C(=O)O)cs3)c(CC3CC3)c2Cc2ccc([SH+](N)[O-])c(F)c2)ccc1F` (centres undefined), the IC50 is less than 100 nM.

In turn, `CC(C)c1ccc(-c2cccc(-c3nn(-c4nc(C(=O)O)cs4)c(CC4CC4)c3Cc3ccc([SH+](N)[O-])c(F)c3)c2)cc1` (centres undefined) came in with an IC50 of less than 100 nM.

In turn, `Cc1ncc(-c2cc(-c3nn(-c4nc(C(=O)O)cs4)c(CC4CC4)c3Cc3ccc([SH+](N)[O-])c(F)c3)ccc2F)[nH]1` (centres undefined) displayed an IC50 of less than 100 nM.

Turning to `N[SH+]([O-])c1ccc(Cc2c(-c3cccc(C#Cc4ccc(C5CC5)s4)c3)nn(-c3nc(C(=O)O)cs3)c2CC2CC2)cc1F` (centres undefined), the IC50 result was “in the range around 550 nM”.

As to `N[S+](=O)([O-])c1ccc(Cc2c(-c3ccc(F)c(C4=CCCCC4)c3)nn(-c3nc(C(=O)O)cs3)c2CC2CC2)cc1F`, the IC50 is less than 100 nM.

The compound `N[S+](=O)([O-])c1ccc(Cc2c(-c3ccc(F)c(C4=CCC5(CC4)CC5)c3)nn(-c3nc(C(=O)O)cs3)c2CC2CC2)cc1F` came in with an IC50 of less than 100 nM.

In turn, `Cc1ccc(C#Cc2cccc(-c3nn(-c4nc(C(=O)O)cs4)c(CC4(C)CC4)c3Cc3ccc([SH+](N)[O-])c(F)c3)c2)s1` (centres undefined) yielded an IC50 of less than 100 nM.

As for `N[S+](=O)([O-])c1ccc(Cc2c(-c3ccc(F)c(-c4cccc(Cl)c4)c3)nn(-c3nc(C(=O)O)cs3)c2CC2CC2)cc1F`, the IC50 is less than 100 nM.

Take `CC(C)N1CC2(CN(c3cc(-c4nn(-c5nc(C(=O)O)cs5)c(CC5CC5)c4Cc4ccc([SH+](N)[O-])c(F)c4)ccc3F)C2)C1` (centres undefined): the IC50 is less than 100 nM.

`CC(=O)c1cc(-c2nn(-c3nc(C(=O)O)cs3)c(CC3CC3)c2Cc2ccc([SH+](N)[O-])c(F)c2)ccc1F` (centres undefined): the IC50 was less than 100 nM.

Consider `N[S+](=O)([O-])c1ccc(Cc2c(-c3ccc(F)c(-c4ccc5c(c4)CCCC5)c3)nn(-c3nc(C(=O)O)cs3)c2CC2CC2)cc1F`, for which the half-maximal inhibitory concentration (IC50) was less than 100 nM.

The compound `N[S+](=O)([O-])c1ccc(Cc2c(-c3ccc(F)c(-c4cc(F)cc(F)c4)c3)nn(-c3nc(C(=O)O)cs3)c2CC2CC2)cc1F` returned an IC50 of less than 100 nM.

Compound `Cc1ccsc1C#Cc1cccc(-c2nn(-c3nc(C(=O)O)cs3)c(CC3CC3)c2Cc2ccc([SH+](N)[O-])c(F)c2)c1` (centres undefined) returned an IC50 of less than 100 nM.

With `N[SH+]([O-])c1ccc(Cc2c(-c3cccc(C#Cc4ccc(C(F)F)s4)c3)nn(-c3nc(C(=O)O)cs3)c2CC2CC2)cc1F` (centres undefined), the IC50 was less than 100 nM.

As for `Cc1ccc(-c2cc(-c3nn(-c4nc(C(=O)O)cs4)c(CC4CC4)c3Cc3ccc([SH+](N)[O-])c(F)c3)ccc2F)cc1F` (centres undefined), the IC50 was less than 100 nM.

In turn, `N[S+](=O)([O-])c1ccc(Cc2c(-c3ccc(F)c(-c4ccc(Cl)c(F)c4)c3)nn(-c3nc(C(=O)O)cs3)c2CC2CC2)cc1F` came in with an IC50 of less than 100 nM.

Take `N[SH+]([O-])c1ccc(Cc2c(-c3ccc(F)c(NC(=O)c4ccccc4)c3)nn(-c3nc(C(=O)O)cs3)c2CC2CC2)cc1F` (centres undefined): the IC50 is less than 100 nM.

On to `N[S+](=O)([O-])c1ccc(Cc2c(-c3ccc(F)c(-c4ccc(C(F)(F)F)cc4)c3)nn(-c3nc(C(=O)O)cs3)c2CC2CC2)cc1F`, for which the IC50 was less than 100 nM.

In turn, `Cc1ccc(C#Cc2cccc(-c3nn(-c4nc(C(=O)O)cs4)c(C4CC45CC5)c3Cc3ccc([SH+](N)[O-])c(F)c3)c2)s1` (centres undefined) gave an IC50 of less than 100 nM.

For `Cc1cc(C)c(C#Cc2cccc(-c3nn(-c4nc(C(=O)O)cs4)c(CC4CC4)c3Cc3ccc([SH+](N)[O-])c(F)c3)c2)s1` (centres undefined), the IC50 was less than 100 nM.

As for `Cc1ccc(C#Cc2cccc(-c3nn(-c4nc(C(=O)O)cs4)c(CC4CC4)c3Cc3ccc([SH+](N)[O-])c(F)c3)c2)o1` (centres undefined), the IC50 was less than 100 nM.

Consider `N[S+](=O)([O-])c1ccc(Cc2c(-c3ccc(F)c(-c4ccc5c(c4)CCC5)c3)nn(-c3nc(C(=O)O)cs3)c2CC2CC2)cc1F`, for which the IC50 is less than 100 nM.

Regarding `Cc1ncc(C#Cc2cc(-c3nn(-c4nc(C(=O)O)cs4)c(CC4CC4)c3Cc3ccc([SH+](N)[O-])c(F)c3)ccc2F)s1` (centres undefined), the IC50 was less than 100 nM.

Compound `N[SH+]([O-])c1ccc(Cc2c(-c3cccc(-c4ccc(Cl)cc4)c3)nn(-c3nc(C(=O)O)cs3)c2CC2CC2)cc1F` (centres undefined) yielded an IC50 of less than 100 nM.

`CC1(C)CC=C(c2cc(-c3nn(-c4nc(C(=O)O)cs4)c(CC4CC4)c3Cc3ccc([SH+](N)[O-])c(F)c3)ccc2F)CC1` (centres undefined) had an IC50 of less than 100 nM.

In turn, `N[SH+]([O-])c1ccc(Cc2c(-c3ccc(F)c(C4=CCCO4)c3)nn(-c3nc(C(=O)O)cs3)c2CC2CC2)cc1F` (centres undefined) gave an IC50 of less than 100 nM.

For `Cc1cnc(C#Cc2cc(-c3nn(-c4nc(C(=O)O)cs4)c(CC4CC4)c3Cc3ccc([SH+](N)[O-])c(F)c3)ccc2F)s1` (centres undefined), the IC50 was less than 100 nM.

As for `Cc1ccc(-c2cccc(-c3nn(-c4nc(C(=O)O)cs4)c(CC4CC4)c3Cc3ccc([SH+](N)[O-])c(F)c3)c2)cc1F` (centres undefined), the half-inhibitory concentration (IC50) was less than 100 nM.

`COc1ccc(-c2cccc(-c3nn(-c4nc(C(=O)O)cs4)c(CC4CC4)c3Cc3ccc([SH+](N)[O-])c(F)c3)c2)cc1C` (centres undefined) yielded an IC50 of less than 100 nM.

For `COc1cc(OC)cc(-c2cc(-c3nn(-c4nc(C(=O)O)cs4)c(CC4CC4)c3Cc3ccc([SH+](N)[O-])c(F)c3)ccc2F)c1` (centres undefined), the IC50 is less than 100 nM.

On to `Cc1cc(-c2cccc(-c3nn(-c4nc(C(=O)O)cs4)c(CC4CC4)c3Cc3ccc([SH+](N)[O-])c(F)c3)c2)ccc1Cl` (centres undefined), for which the IC50 entry was “in the range around 29000 nM”.

As to `Cc1ccc(C#Cc2cccc(-c3nn(-c4nc(C(N)=O)cs4)c(CC4CC4)c3Cc3ccc([SH+](N)[O-])c(F)c3)c2)s1` (centres undefined), the IC50 result was “in the range around 29000 nM”.

In turn, `N[S+](=O)([O-])c1ccc(Cc2c(-c3ccc(F)c(-c4ccc(F)c(F)c4)c3)nn(-c3nc(C(=O)O)cs3)c2CC2CC2)cc1F` returned an IC50 of less than 100 nM.

Consider `N[S+](=O)([O-])c1ccc(Cc2c(-c3ccc(F)c(C4=Cc5ccccc5C4)c3)nn(-c3nc(C(=O)O)cs3)c2CC2CC2)cc1F`, for which the IC50 is less than 100 nM.

`N[S+](=O)([O-])c1ccc(Cc2c(-c3ccc(F)c(-c4nc5ccccc5[nH]4)c3)nn(-c3nc(C(=O)O)cs3)c2CC2CC2)cc1F` returned an IC50 of less than 100 nM.

In the case of `N[S+](=O)([O-])c1ccc(Cc2c(-c3ccc(F)c(C4=CCC(F)(F)CC4)c3)nn(-c3nc(C(=O)O)cs3)c2CC2CC2)cc1F`, the IC50 was less than 100 nM.

On to `CC(C)c1ccc(C#Cc2cccc(-c3nn(-c4nc(C(=O)O)cs4)c(CC4CC4)c3Cc3ccc([SH+](N)[O-])c(F)c3)c2)s1` (centres undefined), for which the IC50 result is “in the range around 550 nM”.

`N[S+](=O)([O-])c1ccc(Cc2c(-c3ccc(F)c(-c4ccc(Cl)cc4)c3)nn(-c3nc(C(=O)O)cs3)c2CC2CC2)cc1F` yielded an IC50 of less than 100 nM.

For the compound `Cc1ccc(/C=C/c2cccc(-c3nn(-c4nc(C(=O)O)cs4)c(CC4CC4)c3Cc3ccc([SH+](N)[O-])c(F)c3)c2)s1` (centres undefined), the IC50 was less than 100 nM.

Take `N[S+](=O)([O-])c1ccc(Cc2c(-c3ccc(F)c(C4=CCC(C(F)(F)F)CC4)c3)nn(-c3nc(C(=O)O)cs3)c2CC2CC2)cc1F` (centres undefined): the IC50 was less than 100 nM.

With `CC(C)(C)c1ccc(-c2cccc(-c3nn(-c4nc(C(=O)O)cs4)c(CC4CC4)c3Cc3ccc([SH+](N)[O-])c(F)c3)c2)cc1` (centres undefined), the IC50 result was “in the range around 550 nM”.

As to `N[SH+]([O-])c1ccc(Cc2c(-c3cccc(C#Cc4ccc(C(F)(F)F)s4)c3)nn(-c3nc(C(=O)O)cs3)c2CC2CC2)cc1F` (centres undefined), the IC50 entry is “in the range around 550 nM”.

Consider `Cc1ccc(C#Cc2cccc(-c3nn(-c4nc(B(O)O)cs4)c(CC4CC4)c3Cc3ccc([SH+](N)[O-])c(F)c3)c2)s1` (centres undefined), for which the IC50 entry is “in the range around 29000 nM”.

The compound `Cc1ccc([C@H]2C[C@@H](c3cccc(-c4nn(-c5nc(C(=O)O)cs5)c(CC5CC5)c4Cc4ccc([SH+](N)[O-])c(F)c4)c3)C2)s1` (some centres undefined) showed an IC50 of less than 100 nM.

`N[SH+]([O-])c1ccc(Cc2c(-c3cccc(C#Cc4ccc(Cl)s4)c3)nn(-c3nc(C(=O)O)cs3)c2CC2CC2)cc1F` (centres undefined) came in with an IC50 of less than 100 nM.

Turning to `Cc1cnc(C#Cc2cccc(-c3nn(-c4nc(C(=O)O)cs4)c(CC4CC4)c3Cc3ccc([SH+](N)[O-])c(F)c3)c2)o1` (centres undefined), the IC50 is less than 100 nM.

Take `Cc1cc(C)cc(-c2cc(-c3nn(-c4nc(C(=O)O)cs4)c(CC4CC4)c3Cc3ccc([SH+](N)[O-])c(F)c3)ccc2F)c1` (centres undefined): the IC50 entry is “in the range around 550 nM”.

The compound `Cc1ccc(C#Cc2cc(-c3nn(-c4nc(C(=O)O)cs4)c(CCC4CC4)c3Cc3ccc([SH+](N)[O-])c(F)c3)ccc2F)s1` (centres undefined) had an IC50 of less than 100 nM.

In turn, `Cc1ccc(C#Cc2cccc(-c3nn(-c4nc(C(=O)O)cs4)c(CC4CC4)c3Cc3ccc([SH+](N)[O-])c(F)c3)c2)s1` (centres undefined) yielded an IC50 of less than 100 nM.

`N[S+](=O)([O-])c1ccc(Cc2c(-c3ccc(F)c(-c4cc(Cl)cc(Cl)c4)c3)nn(-c3nc(C(=O)O)cs3)c2CC2CC2)cc1F`: the IC50 entry was “in the range around 550 nM”.

The values above are taken from ChEMBL document CHEMBL5728348, “1 H-pyrazol-1-yl-thiazoles as inhibitors of lactate dehydrogenase and methods of use thereof” (2021).
